Test results published in ChEMBL document CHEMBL1201862, “PubChem BioAssay data set” (2004).
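Following 48 hours of exposure in 96-well plates, responses at five concentrations were used to interpolate endpoints linearly. Abbreviation: GI50, concentration required for 50% inhibition of growth.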 Active and inactive are the calls of the source. No stated cut-off is given here; in the data, active = GI50 up to about 1.1 µM and inactive = higher.

Tests used:
Assay in all cases: DTP human tumour cell line panel, 48 h
786-0 = test system: 786-0
A549 = test system: A549
ACHN = test system: ACHN
BT-549 = test system: BT-549
CAKI-1 = test system: CAKI-1
CCRF-CEM = test system: CCRF-CEM
COLO 205 = test system: COLO 205
DU-145 = test system: DU-145
EKVX = test system: EKVX
HCC 2998 = test system: HCC 2998
HCT-116 = test system: HCT-116
HCT-15 = test system: HCT-15
HL-60 = test system: HL-60
HOP-62 = test system: HOP-62
HOP-92 = test system: HOP-92
HT-29 = test system: HT-29
IGROV-1 = test system: IGROV-1
K562 = test system: K562
KM12 = test system: KM12
LOX IMVI = test system: LOX IMVI
M14 = test system: M14
MCF7 = test system: MCF7
MDA-MB-231 = test system: MDA-MB-231
MDA-MB-435 = test system: MDA-MB-435
MOLT-4 = test system: MOLT-4
Malme-3M = test system: Malme-3M
NCI-H23 = test system: NCI-H23
NCI-H460 = test system: NCI-H460
NCI-H522 = test system: NCI-H522
NCI/ADR-RES = test system: NCI/ADR-RES
OVCAR-4 = test system: OVCAR-4
OVCAR-5 = test system: OVCAR-5
OVCAR-8 = test system: OVCAR-8
PC-3 = test system: PC-3
RPMI-8226 = test system: RPMI-8226
SF-268 = test system: SF-268
SF-295 = test system: SF-295
SF-539 = test system: SF-539
SK-MEL-28 = test system: SK-MEL-28
SK-MEL-2 = test system: SK-MEL-2
SK-MEL-5 = test system: SK-MEL-5
SN12C = test system: SN12C
SNB-19 = test system: SNB-19
SNB-75 = test system: SNB-75
SR = test system: SR
SW-620 = test system: SW-620
TK-10 = test system: TK-10
U-251 = test system: U-251
UACC-257 = test system: UACC-257
A498 = test system: A498
Hs-578T = test system: Hs-578T
MDA-N = test system: MDA-N
NCI-H226 = test system: NCI-H226
OVCAR-3 = test system: OVCAR-3
RXF 393 = test system: RXF 393
SK-OV-3 = test system: SK-OV-3
T47D = test system: T47D
UO-31 = test system: UO-31
UACC-62 = test system: UACC-62

For `C=CN(C=C)C(=O)Cn1cc(-c2ccccc2)nn1`, the GI50 (786-0) was > 100 µM (inactive), the GI50 (A549) was > 100 µM (inactive) and the GI50 (ACHN) was > 100 µM (inactive). For the same compound, the GI50 (BT-549) was > 100 µM (inactive), the GI50 (CAKI-1) was > 100 µM (inactive) and the GI50 (CCRF-CEM) was > 100 µM (inactive). For the same compound, the GI50 (COLO 205) was > 100 µM (inactive), the GI50 (DU-145) was > 100 µM (inactive) and the GI50 (EKVX) was > 100 µM (inactive). The GI50 (HCC 2998) was > 100 µM (inactive), the GI50 (HCT-116) was > 100 µM (inactive) and the GI50 (HCT-15) was > 100 µM. For the same compound, the GI50 (HL-60) was > 100 µM (inactive), the GI50 (HOP-62) was > 100 µM (inactive) and the GI50 (HOP-92) was > 100 µM (inactive). The GI50 (HT-29) was > 100 µM (inactive), the GI50 (IGROV-1) was > 100 µM (inactive) and the GI50 (K562) was > 100 µM (inactive). For the same compound, the GI50 (KM12) was > 100 µM (inactive), the GI50 (LOX IMVI) was > 100 µM (inactive) and the GI50 (M14) was > 100 µM (inactive). The GI50 (MCF7) was > 100 µM (inactive), the GI50 (MDA-MB-231) was > 100 µM (inactive) and the GI50 (MDA-MB-435) was > 100 µM (inactive). For the same compound, the GI50 (MOLT-4) was > 100 µM (inactive), the GI50 (Malme-3M) was > 100 µM (inactive) and the GI50 (NCI-H23) was > 100 µM (inactive). The GI50 (NCI-H460) was > 100 µM (inactive), the GI50 (NCI-H522) was > 100 µM (inactive) and the GI50 (NCI/ADR-RES) was > 100 µM (inactive). The GI50 (OVCAR-4) was 31.1 µM (inactive), the GI50 (OVCAR-5) was > 100 µM (inactive) and the GI50 (OVCAR-8) was > 100 µM (inactive). For the same compound, the GI50 (PC-3) was > 100 µM (inactive), the GI50 (RPMI-8226) was > 100 µM (inactive) and the GI50 (SF-268) was > 100 µM (inactive). The GI50 (SF-295) was > 100 µM (inactive), the GI50 (SF-539) was > 100 µM (inactive) and the GI50 (SK-MEL-28) was > 100 µM (inactive). The GI50 (SK-MEL-2) was > 100 µM (inactive), the GI50 (SK-MEL-5) was > 100 µM (inactive) and the GI50 (SN12C) was > 100 µM (inactive). The GI50 (SNB-19) was > 100 µM (inactive), the GI50 (SNB-75) was > 100 µM (inactive) and the GI50 (SR) was > 100 µM (inactive). For the same compound, the GI50 (SW-620) was > 100 µM (inactive), the GI50 (TK-10) was > 100 µM (inactive) and the GI50 (U-251) was > 100 µM (inactive). For the same compound, the GI50 (UACC-257) was > 100 µM (inactive).
`CC1=NN(c2cccc(Cl)c2)C(=N/c2nc3ccccc3s2)/C1=C\c1cccs1` was tested, and the GI50 (786-0) was 87.3 µM (inactive), the GI50 (A498) was 28.8 µM (inactive) and the GI50 (ACHN) was 39 µM (inactive). The GI50 (CAKI-1) was 52.7 µM (inactive), the GI50 (CCRF-CEM) was 19.6 µM (inactive) and the GI50 (DU-145) was 44.4 µM (inactive). The GI50 (EKVX) was 24.1 µM (inactive), the GI50 (HCC 2998) was 35 µM (inactive) and the GI50 (HCT-116) was 44.8 µM (inactive). For the same compound, the GI50 (HCT-15) was 32.8 µM, the GI50 (HL-60) was 14.3 µM (inactive) and the GI50 (HOP-62) was 19.5 µM (inactive). The GI50 (HOP-92) was 32.4 µM (inactive), the GI50 (HT-29) was 23.4 µM (inactive) and the GI50 (Hs-578T) was 26.1 µM (inactive). For the same compound, the GI50 (IGROV-1) was 36 µM (inactive), the GI50 (K562) was 32.7 µM (inactive) and the GI50 (KM12) was 43.8 µM (inactive). The GI50 (LOX IMVI) was 40.7 µM (inactive), the GI50 (M14) was 70.1 µM (inactive) and the GI50 (MCF7) was 33.9 µM (inactive). The GI50 (MDA-MB-231) was 38.9 µM (inactive), the GI50 (MDA-MB-435) was 55.6 µM (inactive) and the GI50 (MDA-N) was 73.8 µM (inactive). For the same compound, the GI50 (MOLT-4) was 26.8 µM (inactive), the GI50 (NCI-H226) was 36.4 µM (inactive) and the GI50 (NCI-H23) was 22.5 µM (inactive). For the same compound, the GI50 (NCI-H460) was 35.6 µM (inactive), the GI50 (NCI-H522) was 27.9 µM (inactive) and the GI50 (NCI/ADR-RES) was 20.9 µM (inactive). For the same compound, the GI50 (OVCAR-3) was 13 µM (inactive), the GI50 (OVCAR-4) was 35.6 µM (inactive) and the GI50 (OVCAR-5) was > 100 µM (inactive). For the same compound, the GI50 (OVCAR-8) was 48.3 µM (inactive), the GI50 (PC-3) was 32.1 µM (inactive) and the GI50 (RPMI-8226) was 13.4 µM (inactive). For the same compound, the GI50 (RXF 393) was 51.3 µM (inactive), the GI50 (SF-268) was 33.2 µM (inactive) and the GI50 (SF-295) was 25.3 µM (inactive). For the same compound, the GI50 (SF-539) was 42 µM (inactive), the GI50 (SK-MEL-28) was 36.2 µM (inactive) and the GI50 (SK-MEL-2) was 25.9 µM (inactive). For the same compound, the GI50 (SK-MEL-5) was 28.1 µM (inactive), the GI50 (SK-OV-3) was 25.9 µM (inactive) and the GI50 (SNB-75) was 28 µM (inactive). For the same compound, the GI50 (SR) was 19.5 µM (inactive), the GI50 (SW-620) was 54.2 µM (inactive) and the GI50 (T47D) was 39.4 µM (inactive). The GI50 (TK-10) was 45.7 µM (inactive), the GI50 (U-251) was 24 µM (inactive) and the GI50 (UACC-257) was 37.4 µM (inactive). For the same compound, the GI50 (UO-31) was 60.8 µM (inactive).
`N=c1oc2cc(O)ccc2cc1C(=O)Nc1cccc2ccccc12` was tested, and the GI50 (786-0) was 3.45 µM (inactive), the GI50 (A498) was 5.25 µM (inactive) and the GI50 (A549) was 5.37 µM (inactive). The GI50 (ACHN) was 3.99 µM (inactive), the GI50 (BT-549) was 2.43 µM (inactive) and the GI50 (CAKI-1) was 5.97 µM (inactive). For the same compound, the GI50 (CCRF-CEM) was 2.35 µM (inactive), the GI50 (COLO 205) was 15.2 µM (inactive) and the GI50 (DU-145) was 6.53 µM (inactive). The GI50 (EKVX) was 4.32 µM (inactive), the GI50 (HCC 2998) was 3.71 µM (inactive) and the GI50 (HCT-116) was 3.39 µM (inactive). For the same compound, the GI50 (HCT-15) was 2.67 µM, the GI50 (HL-60) was 2.11 µM (inactive) and the GI50 (HOP-62) was 11.3 µM (inactive). The GI50 (HOP-92) was 4.31 µM (inactive), the GI50 (HT-29) was 7.6 µM (inactive) and the GI50 (Hs-578T) was 2.94 µM (inactive). The GI50 (IGROV-1) was 3.27 µM (inactive), the GI50 (K562) was 3.33 µM (inactive) and the GI50 (KM12) was 3.75 µM (inactive). The GI50 (LOX IMVI) was 4.86 µM (inactive), the GI50 (M14) was 7 µM (inactive) and the GI50 (MCF7) was 3.93 µM (inactive). The GI50 (MDA-MB-231) was 3.06 µM (inactive), the GI50 (MDA-MB-435) was 1.97 µM (inactive) and the GI50 (MOLT-4) was 2.7 µM (inactive). The GI50 (Malme-3M) was 0.883 µM (active), the GI50 (NCI-H226) was 5.92 µM (inactive) and the GI50 (NCI-H23) was 3.7 µM (inactive). For the same compound, the GI50 (NCI-H460) was 4.02 µM (inactive), the GI50 (NCI-H522) was 1.65 µM (inactive) and the GI50 (NCI/ADR-RES) was 1.82 µM (inactive). For the same compound, the GI50 (OVCAR-3) was 7.13 µM (inactive), the GI50 (OVCAR-4) was 7.01 µM (inactive) and the GI50 (OVCAR-5) was 13.5 µM (inactive). The GI50 (OVCAR-8) was 4.78 µM (inactive), the GI50 (PC-3) was 3.05 µM (inactive) and the GI50 (RPMI-8226) was 4.45 µM (inactive). For the same compound, the GI50 (RXF 393) was 4.91 µM (inactive), the GI50 (SF-268) was 3.61 µM (inactive) and the GI50 (SF-295) was 5.18 µM (inactive). The GI50 (SK-MEL-28) was 6.34 µM (inactive), the GI50 (SK-MEL-5) was 4.23 µM (inactive) and the GI50 (SK-OV-3) was 6.65 µM (inactive). The GI50 (SN12C) was 5.33 µM (inactive), the GI50 (SNB-19) was 4.68 µM (inactive) and the GI50 (SNB-75) was 3.54 µM (inactive). The GI50 (SR) was 1.67 µM (inactive), the GI50 (SW-620) was 3.4 µM (inactive) and the GI50 (T47D) was 3.5 µM (inactive). The GI50 (TK-10) was 2.69 µM (inactive), the GI50 (U-251) was 3.53 µM (inactive) and the GI50 (UACC-257) was 9.08 µM (inactive). The GI50 (UACC-62) was 3.23 µM (inactive) and the GI50 (UO-31) was 4.7 µM (inactive).
